Measured values reported in patent US20220054510A1, “USE OF 1-ALPHA-HYDROXYVITAMIN D5 AND RELATED COMPOUNDS AS PROPHYLACTIC OR THERAPEUTIC AGENTS FOR SARS-COV-2 (COVID-19 VIRUS) AND RELATED INFECTIONS” (priority 2020, published 2022).

How the values were obtained:
SARS-CoV-2 [1] = conditions: biorxiv.org/content/10.1101/2020.06.21.162396v1; cited from earlier work
SARS-CoV-2 [2] = format: cell-based; conditions: Ace2-A549 cells, concentration of 10 micromolar, FIG. 2
[3] = tested on: Ace2-A549 cells (human lung epithelial cells); experiment: host cell survival in SARS-CoV-2 infected Ace2-A549 cells; conditions: concentration of 10 micromolar

Row | Compound | in vitro activity against this virus (SARS-CoV-2 [1]) | elimination of SARS-CoV-2 virus infection (SARS-CoV-2 [2]) | killing of host cells [3]
1 | C=C1/C(=C\C=C2/CCC[C@]3(C)[C@@H]([C@H](C)CCCC(C)(C)O)CC[C@@H]23)C[C@@H](O)C[C@@H]1O [Calcitriol] | in vitro activity against this virus | – | –
2 | C=C1/C(=C\C=C2/CCC[C@]3(C)[C@@H]([C@H](C)CC[C@@H](CC)C(C)C)CC[C@@H]23)C[C@@H](O)C[C@@H]1O [1-alphahydroxyvitamin D5, 1-alpha-hydroxyvitamin D5] | – | greater than 99% | without killing the host cells
